In patent US12685312B2, “Sulfonamide apyrase inhibitors” (Texas Crop Science, Inc., priority 2022, dated 2026):

These compounds were tested on apyrase (assay: Screen for apyrase inhibitors (Method 1, in vitro phosphate-release absorbance assay)). Settings: inhibitor conc at 1 mM stock, 1 hr room temperature, absorbance 630 nm; rounded average of two assay results.
Type: biochemical
How it was run: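 Phosphate-release colorimetric assay (Windsor method) in 60 mM Hepes, 3 mM MgCl2, 3 mM CaCl2, 3 mM ATP, pH 6.5, with compound or DMSO control added. Released phosphate developed with ammonium molybdate and ascorbic acid/TCA, then stopped with citrate/acetic acid.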

Q: `O=C(Nc1ccccc1Cl)c1cccc(S(=O)(=O)N2CCc3ccccc32)c1` [I-604, N-(2-chlorophenyl)-3-(indolin-1-ylsulfonyl)benzamide] was tested. Which “% Inhibition of Apyrase” value did it give?
A: 23%

Q: How did the “% Inhibition of Apyrase” value turn out when `COc1cc(C)c(NC(=O)c2cccc(S(=O)(=O)N3CCc4ccccc43)c2)cc1OC` [I-605, N-(4,5-dimethoxy-2-methylphenyl)-3-(indolin-1-ylsulfonyl)benzamide] was run?
A: 23%

Q: How did the “% Inhibition of Apyrase” value turn out when `COc1ccc(NS(=O)(=O)c2cccc(C(=O)Nc3cnc4[nH]nc(C)c4c3)c2)cc1` [I-606, 3-(N-(4-methoxyphenyl)sulfamoyl)-N-(3-methyl-1H-pyrazolo[3,4-b]pyridin-5-yl)benzamide] was run?
A: 16%

Q: `NC(=O)c1ccc(NC(=O)c2cccc(S(=O)(=O)N3CCc4ccccc43)c2)cc1` [I-607, N-(4-carbamoylphenyl)-3-(indolin-1-ylsulfonyl)benzamide] was tested. Which “% Inhibition of Apyrase” value did it give?
A: 16%

Q: With `CC(=O)NS(=O)(=O)c1ccc(NC(=O)c2cccc(S(=O)(=O)N3CCc4ccccc43)c2)cc1` [I-608, N-(4-(N-acetylsulfamoyl)phenyl)-3-(indolin-1-ylsulfonyl)benzamide] as the compound, how does the “% Inhibition of Apyrase” value read?
A: 14%

Q: For `O=C(Nc1ccc2c(c1)OCCCO2)c1cccc(S(=O)(=O)N2CCc3ccccc32)c1` [I-609, N-(3,4-dihydro-2H-benzo[b][1,4]dioxepin-7-yl)-3-(indolin-1-ylsulfonyl)benzamide], which “% Inhibition of Apyrase” value is on record?
A: 13%

Q: How did the “% Inhibition of Apyrase” value turn out when `CC(=O)c1ccccc1NC(=O)c1cccc(S(=O)(=O)N2c3ccccc3CC2C)c1` (stereo not shown) [I-610, N-(2-acetylphenyl)-3-((2-methylindolin-1-yl)sulfonyl)benzamide] was run?
A: 4%

Q: With `Cc1ccc(S(=O)(=O)Nc2ccccc2F)cc1C(=O)Nc1ccc(F)cc1F` [I-611, N-(2,4-difluorophenyl)-5-(N-(2-fluorophenyl)sulfamoyl)-2-methylbenzamide] as the compound, how does the “% Inhibition of Apyrase” value read?
A: 4%

Q: `COc1ccc(NC(=O)c2cccc(S(=O)(=O)Nc3cccc(Cl)c3)c2)cn1` [I-612, 3-(N-(3-chlorophenyl)sulfamoyl)-N-(6-methoxypyridin-3-yl)benzamide] was tested. Which “% Inhibition of Apyrase” value did it give?
A: 4%

Q: For `Cc1ccc(NC(=O)c2cccc(S(=O)(=O)Nc3ccccc3F)c2)c(F)c1` [I-613, N-(2-fluoro-4-methylphenyl)-3-(N-(2-fluorophenyl)sulfamoyl)benzamide], which “% Inhibition of Apyrase” value is on record?
A: 3%

Q: `CCOc1ccc(NS(=O)(=O)c2cccc(C(=O)Nc3ccc(OC)cc3)c2)cc1` [I-614, 3-(N-(4-ethoxyphenyl)sulfamoyl)-N-(4-methoxyphenyl)benzamide] was tested. Which “% Inhibition of Apyrase” value did it give?
A: 1%

Q: With `O=C(Nc1ccccn1)c1cccc(S(=O)(=O)Nc2cccc(Cl)c2)c1` [I-615, 3-(N-(3-chlorophenyl)sulfamoyl)-N-(pyridin-2-yl)benzamide] as the compound, how does the “% Inhibition of Apyrase” value read?
A: 1%

Q: `O=C(Nc1ccccn1)c1cccc(NS(=O)(=O)c2ccc(Br)cc2)c1` [I-627, 3-((4-bromophenyl)sulfonamido)-N-(pyridin-2-yl)benzamide] was tested. Which “% Inhibition of Apyrase” value did it give?
A: 71%

Q: For `Cc1cc(NC(=O)c2cccc(NS(=O)(=O)c3ccc4c(c3)OCCO4)c2)no1` [I-628, 3-((2,3-dihydrobenzo[b][1,4]dioxine)-6-sulfonamido)-N-(5-methylisoxazol-3-yl)benzamide], which “% Inhibition of Apyrase” value is on record?
A: 68%

Q: For `O=C(Nc1cccnc1)c1cccc(NS(=O)(=O)c2ccc3c(c2)OCCCO3)c1` [I-629, 3-((3,4-dihydro-2H-benzo[b][1,4]dioxepine)-7-sulfonamido)-N-(pyridin-3-yl)benzamide], which “% Inhibition of Apyrase” value is on record?
A: 67%

Q: With `O=C(Nc1cccc2cccnc12)c1cccc(NS(=O)(=O)c2cccs2)c1` [I-630, N-(quinolin-8-yl)-3-(thiophene-2-sulfonamido)benzamide] as the compound, how does the “% Inhibition of Apyrase” value read?
A: 66%

Q: With `O=C(Nc1cccc(Cl)c1)c1cccc(NS(=O)(=O)c2cccs2)c1` [I-631, N-(3-chlorophenyl)-3-(thiophene-2-sulfonamido)benzamide] as the compound, how does the “% Inhibition of Apyrase” value read?
A: 62%

Q: How did the “% Inhibition of Apyrase” value turn out when `O=C(Nc1ccc2c(c1)CCC2)c1cccc(NS(=O)(=O)c2cccs2)c1` [I-632, N-(2,3-dihydro-1H-inden-5-yl)-3-(thiophene-2-sulfonamido)benzamide] was run?
A: 62%

Q: With `Cc1cnc(NC(=O)c2cccc(NS(=O)(=O)c3ccc(Cl)c(Cl)c3)c2)[nH]1` [I-633, 3-((3,4-dichlorophenyl)sulfonamido)-N-(5-methyl-1H-imidazol-2-yl)benzamide] as the compound, how does the “% Inhibition of Apyrase” value read?
A: 60%

Q: With `O=C(Nc1cccc(C(F)(F)F)c1)c1cccc(NS(=O)(=O)c2ccc(Cl)s2)c1` [I-634, 3-((5-chlorothiophene)-2-sulfonamido)-N-(3-(trifluoromethyl)phenyl)benzamide] as the compound, how does the “% Inhibition of Apyrase” value read?
A: 59%

Q: `O=C(Nc1nc2ccccc2[nH]1)c1cccc(NS(=O)(=O)c2ccc3c(c2)OCCCO3)c1` [I-635, N-(1H-benzo[d]imidazol-2-yl)-3-((3,4-dihydro-2H-benzo[b][1,4]dioxepine)-7-sulfonamido)benzamide] was tested. Which “% Inhibition of Apyrase” value did it give?
A: 58%

Q: Which “% Inhibition of Apyrase” value does the source give for `Cc1ccc(NC(=O)c2cccc(NS(=O)(=O)c3cccs3)c2)cc1C` [I-636, N-(3,4-dimethylphenyl)-3-(thiophene-2-sulfonamido)benzamide] here?
A: 58%

Q: With `O=C(Nc1nc2c(s1)CCC2)c1cccc(NS(=O)(=O)c2ccc3c(c2)OCCO3)c1` [I-637, N-(5,6-dihydro-4H-cyclopenta[d]thiazol-2-yl)-3-((2,3-dihydrobenzo[b][1,4]dioxine)-6-sulfonamido)benzamide] as the compound, how does the “% Inhibition of Apyrase” value read?
A: 57%

Q: For `O=C(Nc1cccc2ncccc12)c1cccc(NS(=O)(=O)c2cccs2)c1` [I-638, N-(quinolin-5-yl)-3-(thiophene-2-sulfonamido)benzamide], which “% Inhibition of Apyrase” value is on record?
A: 57%

Q: How did the “% Inhibition of Apyrase” value turn out when `O=C(Nc1nccs1)c1cccc(NS(=O)(=O)c2cc(Cl)ccc2Cl)c1` [I-639, 3-((2,5-dichlorophenyl)sulfonamido)-N-(thiazol-2-yl)benzamide] was run?
A: 56%

Q: For `CCOc1ccc(S(=O)(=O)Nc2cccc(C(=O)Nc3ccc(C)cn3)c2)cc1` [I-640, 3-((4-ethoxyphenyl)sulfonamido)-N-(5-methylpyridin-2-yl)benzamide], which “% Inhibition of Apyrase” value is on record?
A: 56%

Q: How did the “% Inhibition of Apyrase” value turn out when `Cc1ccc(C)c(S(=O)(=O)Nc2cccc(C(=O)Nc3ccc(F)cn3)c2)c1` [I-641, 3-((2,5-dimethylphenyl)sulfonamido)-N-(5-fluoropyridin-2-yl)benzamide] was run?
A: 55%

Q: `O=C(Nc1cccc(C(F)(F)F)c1)c1cccc(NS(=O)(=O)c2cccs2)c1` [I-642, 3-(thiophene-2-sulfonamido)-N-(3-(trifluoromethyl)phenyl)benzamide] was tested. Which “% Inhibition of Apyrase” value did it give?
A: 55%

Q: `O=C(Nc1cccc(C(F)(F)F)c1)c1cccc(NS(=O)(=O)c2ccc(Cl)nc2)c1` [I-643, 3-((6-chloropyridine)-3-sulfonamido)-N-(3-(trifluoromethyl)phenyl)benzamide] was tested. Which “% Inhibition of Apyrase” value did it give?
A: 55%

Q: Which “% Inhibition of Apyrase” value does the source give for `O=C(Nc1nccs1)c1cccc(NS(=O)(=O)c2ccc3c(c2)OCCCO3)c1` [I-644, 3-((3,4-dihydro-2H-benzo[b][1,4]dioxepine)-7-sulfonamido)-N-(thiazol-2-yl)benzamide] here?
A: 54%

Q: With `COc1ccc(NC(=O)c2cccc(NS(=O)(=O)c3ccc(Br)cc3)c2)cn1` [I-645, 3-((4-bromophenyl)sulfonamido)-N-(6-methoxypyridin-3-yl)benzamide] as the compound, how does the “% Inhibition of Apyrase” value read?
A: 54%

Q: Which “% Inhibition of Apyrase” value does the source give for `Cc1ccc(NC(=O)c2cccc(NS(=O)(=O)c3ccc(Br)cc3)c2)nc1` [I-646, 3-((4-bromophenyl)sulfonamido)-N-(5-methylpyridin-2-yl)benzamide] here?
A: 54%

Q: Which “% Inhibition of Apyrase” value does the source give for `CCCCc1nnc(NC(=O)c2cccc(NS(=O)(=O)c3ccc(C)c(F)c3)c2)s1` [I-647, N-(5-butyl-1,3,4-thiadiazol-2-yl)-3-((3-fluoro-4-methylphenyl)sulfonamido)benzamide] here?
A: 53%

Q: Which “% Inhibition of Apyrase” value does the source give for `O=C(Nc1cccnc1)c1cccc(NS(=O)(=O)c2ccc(Br)cc2)c1` [I-648, 3-((4-bromophenyl)sulfonamido)-N-(pyridin-3-yl)benzamide] here?
A: 51%

Q: How did the “% Inhibition of Apyrase” value turn out when `Cc1ccc(S(=O)(=O)Nc2cccc(C(=O)Nc3nc4ccccc4[nH]3)c2)cc1F` [I-649, N-(1H-benzo[d]imidazol-2-yl)-3-((3-fluoro-4-methylphenyl)sulfonamido)benzamide] was run?
A: 50%

Q: For `Cc1csc(NC(=O)c2cccc(NS(=O)(=O)c3ccc4c(c3)OCCCO4)c2)n1` [I-650, 3-((3,4-dihydro-2H-benzo[b][1,4]dioxepine)-7-sulfonamido)-N-(4-methylthiazol-2-yl)benzamide], which “% Inhibition of Apyrase” value is on record?
A: 50%

Q: Which “% Inhibition of Apyrase” value does the source give for `Cc1ccnc(NC(=O)c2cccc(NS(=O)(=O)c3ccc(C)c(F)c3)c2)c1` [I-651, 3-((3-fluoro-4-methylphenyl)sulfonamido)-N-(4-methylpyridin-2-yl)benzamide] here?
A: 50%

Q: How did the “% Inhibition of Apyrase” value turn out when `O=C(Nc1nnc(C2CC2)s1)c1cccc(NS(=O)(=O)c2ccccc2)c1` [I-652, N-(5-cyclopropyl-1,3,4-thiadiazol-2-yl)-3-(phenylsulfonamido)benzamide] was run?
A: 45%

Q: How did the “% Inhibition of Apyrase” value turn out when `Cn1nc2c(c1NC(=O)c1cccc(NS(=O)(=O)c3ccc(Br)cc3)c1)CCC2` [I-653, 3-((4-bromophenyl)sulfonamido)-N-(2-methyl-2,4,5,6-tetrahydrocyclopenta[c]pyrazol-3-yl)benzamide] was run?
A: 44%

Q: `COc1ccc(NC(=O)c2cccc(NS(=O)(=O)c3cc(Cl)ccc3Cl)c2)cn1` [I-654, 3-((2,5-dichlorophenyl)sulfonamido)-N-(6-methoxypyridin-3-yl)benzamide] was tested. Which “% Inhibition of Apyrase” value did it give?
A: 42%

Q: With `Cc1ccc(NC(=O)c2cccc(NS(=O)(=O)c3ccc(C)c(F)c3)c2)nc1` [I-655, 3-((3-fluoro-4-methylphenyl)sulfonamido)-N-(5-methylpyridin-2-yl)benzamide] as the compound, how does the “% Inhibition of Apyrase” value read?
A: 35%

Q: Which “% Inhibition of Apyrase” value does the source give for `O=C(Nc1nc2ccccc2[nH]1)c1cccc(NS(=O)(=O)c2ccc3c(c2)OCCO3)c1` [I-656, N-(1H-benzo[d]imidazol-2-yl)-3-((2,3-dihydrobenzo[b][1,4]dioxine)-6-sulfonamido)benzamide] here?
A: 34%

Q: With `O=C(Nc1[nH]ncc1-c1ccccc1)c1cccc(NS(=O)(=O)c2ccc(F)c(F)c2)c1` [I-657, 3-((3,4-difluorophenyl)sulfonamido)-N-(4-phenyl-1H-pyrazol-5-yl)benzamide] as the compound, how does the “% Inhibition of Apyrase” value read?
A: 34%
